Measured values: ChEMBL document CHEMBL1201862, “PubChem BioAssay data set” (2004)
Where a name gives a salt, the structure may show the parent alone.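 Briefly, cells in 96-well plates were exposed to five compound concentrations for 48 h, and endpoints were estimated by linear interpolation. GI50 is the concentration that inhibits growth by half.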 Calls of active or inactive are those of the source. Rule as the data show it: active = GI50 up to about 1.1 µM and inactive = higher. Where a SMILES comes first, the peptide text is derived from it. The star is where a group is joined. Boc = CC(C)(C)OC(=O)*; OBn = c1ccc(CO*)cc1

What was measured:
Test in all cases: growth of human tumour cells (NCI), 48 h
[1] = tested on: NCI-H522
[2] = tested on: NCI-H23
[3] = tested on: RPMI-8226
[4] = tested on: NCI/ADR-RES
[5] = tested on: K562
[6] = tested on: UACC-257
[7] = tested on: SK-OV-3
[8] = tested on: KM12
[9] = tested on: MDA-MB-231
[10] = tested on: DU-145
[11] = tested on: MDA-MB-435
[12] = tested on: IGROV-1
[13] = tested on: HCT-116
[14] = tested on: HOP-92
[15] = tested on: MCF7
[16] = tested on: Hs-578T
[17] = tested on: SNB-19
[18] = tested on: BT-549
[19] = tested on: COLO 205
[20] = tested on: MOLT-4

| Structure (SMILES) | GI50 [1] | GI50 [2] | GI50 [3] | GI50 [4] | GI50 [5] | GI50 [6] | GI50 [7] | GI50 [8] | GI50 [9] | GI50 [10] | GI50 [11] | GI50 [12] | GI50 [13] | GI50 [14] | GI50 [15] | GI50 [16] | GI50 [17] | GI50 [18] | GI50 [19] | GI50 [20] |
| --- | --- | --- | --- | --- | --- | --- | --- | --- | --- | --- | --- | --- | --- | --- | --- | --- | --- | --- | --- | --- |
| O=P(O)(O)OC1O[C@H](CO)[C@H](O)[C@H](O)[C@H]1O (stereo not given in full) | > 100 µM (inactive) | > 100 µM (inactive) | > 100 µM (inactive) | > 100 µM (inactive) | > 100 µM (inactive) | > 100 µM (inactive) | > 100 µM (inactive) | > 100 µM (inactive) | > 100 µM (inactive) | > 100 µM (inactive) | > 100 µM (inactive) | > 100 µM (inactive) | > 100 µM (inactive) | > 100 µM (inactive) | > 100 µM (inactive) | > 100 µM (inactive) | > 100 µM (inactive) | > 100 µM (inactive) | – | – |
| CC(C)Cn1cnc2c(SCc3ccccn3)nc(N)nc21 | > 100 µM (inactive) | > 100 µM (inactive) | > 100 µM (inactive) | > 100 µM (inactive) | > 100 µM (inactive) | > 100 µM (inactive) | > 100 µM (inactive) | > 100 µM (inactive) | > 100 µM (inactive) | > 100 µM (inactive) | > 100 µM (inactive) | > 100 µM (inactive) | > 100 µM (inactive) | > 100 µM (inactive) | > 100 µM (inactive) | > 100 µM (inactive) | > 100 µM (inactive) | > 100 µM (inactive) | > 100 µM (inactive) | – |
| O=S1(=O)c2ccccc2C(Nc2ccccc2)N1c1ccccc1 (stereo not given) | 24.7 µM (inactive) | > 100 µM (inactive) | > 100 µM (inactive) | 45 µM (inactive) | 27.6 µM (inactive) | > 100 µM (inactive) | > 100 µM (inactive) | 72.3 µM (inactive) | > 100 µM (inactive) | > 100 µM (inactive) | 45.1 µM (inactive) | 36.9 µM (inactive) | > 100 µM (inactive) | 38.5 µM (inactive) | > 100 µM (inactive) | > 100 µM (inactive) | – | 58.9 µM (inactive) | – | 50.4 µM (inactive) |
| Cc1cc(C(=O)CBr)c(CN2C(=O)c3ccccc3C2=O)c(=O)n1C | 16.1 µM (inactive) | 80.4 µM (inactive) | – | 47.8 µM (inactive) | 3.19 µM (inactive) | 17 µM (inactive) | > 100 µM (inactive) | 19.5 µM (inactive) | 18.1 µM (inactive) | 13.7 µM (inactive) | 20.3 µM (inactive) | 26.9 µM (inactive) | 66.1 µM (inactive) | – | 17.9 µM (inactive) | 15.2 µM (inactive) | 33.3 µM (inactive) | 18.1 µM (inactive) | 8.43 µM (inactive) | 1.93 µM (inactive) |
| CC(=O)Oc1ccc2c3c1O[C@H]1[C@H](O)CC[C@@]4(O)[C@@H](C2)N(C)CC[C@]314 | > 100 µM (inactive) | > 100 µM (inactive) | > 100 µM (inactive) | > 100 µM (inactive) | – | > 100 µM (inactive) | > 100 µM (inactive) | > 100 µM (inactive) | > 100 µM (inactive) | > 100 µM (inactive) | > 100 µM (inactive) | > 100 µM (inactive) | > 100 µM (inactive) | > 100 µM (inactive) | > 100 µM (inactive) | > 100 µM (inactive) | > 100 µM (inactive) | > 100 µM (inactive) | > 100 µM (inactive) | > 100 µM (inactive) |
| O=S1(=O)c2ccccc2NC(=S)CC1c1ccccc1 (stereo not given) | > 100 µM (inactive) | > 100 µM (inactive) | > 100 µM (inactive) | > 100 µM (inactive) | > 100 µM (inactive) | 24.8 µM (inactive) | > 100 µM (inactive) | > 100 µM (inactive) | > 100 µM (inactive) | > 100 µM (inactive) | > 100 µM (inactive) | > 100 µM (inactive) | > 100 µM (inactive) | – | > 100 µM (inactive) | > 100 µM (inactive) | > 100 µM (inactive) | > 100 µM (inactive) | 36.6 µM (inactive) | > 100 µM (inactive) |
| O=c1oc2ccc([N+](=O)[O-])cc2cc1Br | > 100 µM (inactive) | > 100 µM (inactive) | 53.7 µM (inactive) | > 100 µM (inactive) | > 100 µM (inactive) | > 100 µM (inactive) | – | > 100 µM (inactive) | > 100 µM (inactive) | > 100 µM (inactive) | > 100 µM (inactive) | > 100 µM (inactive) | > 100 µM (inactive) | 86.3 µM (inactive) | > 100 µM (inactive) | > 100 µM (inactive) | > 100 µM (inactive) | > 100 µM (inactive) | > 100 µM (inactive) | > 100 µM (inactive) |
| CCOC(=O)/C=C1\Nc2ccccc2C12CCc1c([nH]c3ccccc13)C2C(=O)OCC (stereo not given) | 21.5 µM (inactive) | 43.5 µM (inactive) | 7.52 µM (inactive) | 11.8 µM (inactive) | 48.4 µM (inactive) | 24 µM (inactive) | 30.2 µM (inactive) | 20.5 µM (inactive) | 18 µM (inactive) | 98.2 µM (inactive) | 6.27 µM (inactive) | 8.59 µM (inactive) | 17.6 µM (inactive) | – | 17.5 µM (inactive) | 58.7 µM (inactive) | > 100 µM (inactive) | 52.2 µM (inactive) | 4.66 µM (inactive) | 8.79 µM (inactive) |
| CCOC(=O)c1nc2ccccc2nc1Nc1ccc(Cl)c(Cl)c1 | 45.7 µM (inactive) | 33.7 µM (inactive) | 57.7 µM (inactive) | > 100 µM (inactive) | 76.7 µM (inactive) | – | 27.7 µM (inactive) | > 100 µM (inactive) | > 100 µM (inactive) | > 100 µM (inactive) | > 100 µM (inactive) | 32.5 µM (inactive) | 29 µM (inactive) | 16.8 µM (inactive) | 70 µM (inactive) | 34.4 µM (inactive) | 27.2 µM (inactive) | 12.8 µM (inactive) | 67.9 µM (inactive) | > 100 µM (inactive) |
| COc1ccc(CNc2nc3ccccc3nc2C(=O)O)cc1 | 72.9 µM (inactive) | > 100 µM (inactive) | 21.7 µM (inactive) | 38.9 µM (inactive) | 93.3 µM (inactive) | > 100 µM (inactive) | – | 65.6 µM (inactive) | > 100 µM (inactive) | 66.4 µM (inactive) | > 100 µM (inactive) | > 100 µM (inactive) | 51.6 µM (inactive) | 70.5 µM (inactive) | > 100 µM (inactive) | > 100 µM (inactive) | > 100 µM (inactive) | > 100 µM (inactive) | 71.6 µM (inactive) | > 10 µM (inactive) |
| CCC(=O)NCC1CCCN2CCCCC12 (stereo not given) | – | > 100 µM (inactive) | > 100 µM (inactive) | > 100 µM (inactive) | > 100 µM (inactive) | > 100 µM (inactive) | > 100 µM (inactive) | > 100 µM (inactive) | > 100 µM (inactive) | > 100 µM (inactive) | > 100 µM (inactive) | – | > 100 µM (inactive) | > 100 µM (inactive) | > 100 µM (inactive) | > 100 µM (inactive) | > 100 µM (inactive) | > 100 µM (inactive) | > 100 µM (inactive) | > 100 µM (inactive) |
| O=C(O)/C(Cc1ccc([N+](=O)[O-])cc1)=N\O | 29.6 µM (inactive) | > 100 µM (inactive) | > 100 µM (inactive) | > 100 µM (inactive) | > 100 µM (inactive) | > 100 µM (inactive) | > 100 µM (inactive) | > 100 µM (inactive) | > 100 µM (inactive) | > 100 µM (inactive) | > 100 µM (inactive) | 69.8 µM (inactive) | > 100 µM (inactive) | 27.9 µM (inactive) | > 100 µM (inactive) | 31.8 µM (inactive) | > 100 µM (inactive) | 76.2 µM (inactive) | > 100 µM (inactive) | – |
| COc1cc(C(c2ccc3c(c2)OCO3)C2SCCCS2)cc(OC)c1OC (stereo not given) | 2.11 µM (inactive) | 3.76 µM (inactive) | 3.27 µM (inactive) | 2.15 µM (inactive) | 1.85 µM (inactive) | 6.08 µM (inactive) | 2.81 µM (inactive) | 3.09 µM (inactive) | 2.3 µM (inactive) | 3.03 µM (inactive) | 0.661 µM (active) | 2.49 µM (inactive) | 2.59 µM (inactive) | – | 2.62 µM (inactive) | 2.33 µM (inactive) | 1.86 µM (inactive) | 8.79 µM (inactive) | 1.63 µM (inactive) | 2.87 µM (inactive) |
| CC(NC(=O)C(Cc1ccccc1)NC(=O)C(Cc1ccccc1)NC(=O)OC(C)(C)C)C(=O)OCc1ccccc1 (stereo not drawn) (Boc-Phe-Phe-Ala-OBn; configuration not given here) | 68.1 µM (inactive) | > 100 µM (inactive) | 32.3 µM (inactive) | > 100 µM (inactive) | 64.3 µM (inactive) | > 100 µM (inactive) | > 100 µM (inactive) | > 100 µM (inactive) | > 100 µM (inactive) | > 100 µM (inactive) | > 100 µM (inactive) | > 100 µM (inactive) | 76.9 µM (inactive) | 20.4 µM (inactive) | 53.5 µM (inactive) | 73.3 µM (inactive) | – | > 100 µM (inactive) | 65.3 µM (inactive) | 54.7 µM (inactive) |
| O=C(OCCN1CCCCCC1)C(c1ccsc1)C1CCCCC1 (stereo not given) [CETIEDIL CITRATE] | – | 18.5 µM (inactive) | 13.5 µM (inactive) | 15.7 µM (inactive) | – | 18.8 µM (inactive) | 16.9 µM (inactive) | 16.8 µM (inactive) | 16.7 µM (inactive) | 16.6 µM (inactive) | 16.9 µM (inactive) | 11.1 µM (inactive) | 14.1 µM (inactive) | 13.9 µM (inactive) | 16.7 µM (inactive) | 20.7 µM (inactive) | 18.7 µM (inactive) | 15.3 µM (inactive) | 10.5 µM (inactive) | 21.4 µM (inactive) |
